What was measured:
[1] = target: T1, Human immunodeficiency virus type 1 integrase (Human immunodeficiency virus 1, UniProt Q7ZJM1); test: Inhibitory activity against 3' processing by HIV integrase
[2] = target: T1, Human immunodeficiency virus type 1 integrase; test: Inhibitory activity against DNA strand transfer by HIV integrase

T1 sequence (Q7ZJM1 whole entry): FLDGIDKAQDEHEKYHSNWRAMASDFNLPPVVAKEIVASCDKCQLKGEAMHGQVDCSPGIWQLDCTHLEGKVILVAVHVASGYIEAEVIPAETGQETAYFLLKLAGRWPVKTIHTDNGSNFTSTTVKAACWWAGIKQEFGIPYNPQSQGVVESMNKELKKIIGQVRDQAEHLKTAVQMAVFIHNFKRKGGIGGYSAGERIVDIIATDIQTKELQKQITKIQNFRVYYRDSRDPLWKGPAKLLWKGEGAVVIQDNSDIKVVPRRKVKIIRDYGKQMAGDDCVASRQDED

Structure (SMILES) | IC50 [1] | IC50 [2]
O=C(Nc1ccccc1)c1cc(S(=O)(=O)Nc2nncn2-c2ccc(Cl)cc2)c(S)cc1Cl | 6.03 µM | 12 µM
Cc1cnc(NS(=O)(=O)c2ccc(/N=N/c3cc4ccccc4cc3O)cc2)s1 | 38.9 µM | 50.1 µM
Cc1ccc(Nc2n[nH]c(NS(=O)(=O)c3cc(C)c(Cl)cc3S)n2)cc1 | 22.4 µM | 24 µM
O=C(Nc1ccc(Cl)cc1)c1cc(S(=O)(=O)Nc2nncn2-c2ccc(F)cc2)c(S)cc1Cl | 37.2 µM | 37.2 µM
Cc1cc(S(=O)(=O)Nc2nc(Nc3ccc(Cl)cc3)nn2C)c(S)cc1Cl | 16.2 µM | 17.8 µM
Cc1cc(S(=O)(=O)Nc2nnc3c(C(F)(F)F)cc(Cl)cn23)c(S)cc1Cl | 10.7 µM | 24 µM
COc1cc(Nc2nnc(NS(=O)(=O)c3cc(C)c(Cl)cc3S)[nH]2)cc(OC)c1OC | 15.5 µM | 16.6 µM
Cc1ccc(-n2cnnc2NS(=O)(=O)c2cc(C(=O)Nc3ccccc3)c(Cl)cc2S)cc1 | 6.03 µM | 10 µM
O=S(=O)(Nc1nnc2n1-c1ccccc1CC2)c1ccc(Cl)cc1S | 21.9 µM | 19.5 µM
Cc1cc2c(cc1Cl)SC(C(C#N)C(=O)c1ccccc1)NS2(=O)=O (centres undefined) | 200 µM | 112 µM
CCCCn1cnnc1NS(=O)(=O)c1cc(C(=O)Nc2ccc(Cl)cc2)c(Cl)cc1S | 36.3 µM | 43.7 µM
CC(=O)Oc1cc(S(=O)(=O)Nc2nnc(Nc3ccc(C)cc3)[nH]2)c(S)cc1Cl | 7.59 µM | 10 µM
Cc1cc2c(cc1Cl)SC(C(C#N)C#N)NS2(=O)=O (centres undefined) | 708 µM | 603 µM
O=C(CC(Sc1[nH]cnc2ncnc1-2)Sc1[nH]cnc2ncnc1-2)Nc1ccc(S(=O)(=O)Nc2ccc(/N=N/c3ccccc3)cc2)cc1 | 141 µM | 112 µM
Cc1cc(C(F)(F)F)cc(-n2nc(NS(=O)(=O)c3cc(C)c(Cl)cc3S)nc2N)n1 | 9.33 µM | 6.31 µM
CC1=NNC(=O)C1/N=N/c1ccc(S(=O)(=O)Nc2nccs2)cc1 (centres undefined) | 70.8 µM | 61.7 µM
Cc1ccc(NC(=O)c2cc(S(=O)(=O)Nc3nncn3CC(C)C)c(S)cc2Cl)cc1 | 75.9 µM | 100 µM
Cc1cc(S(=O)(=O)Nc2nc3ccccc3[nH]2)c(S)cc1Cl | 38.9 µM | 43.7 µM
Cc1cc(S(=O)(=O)Nc2nc3ccccc3nc2-c2cccc([N+](=O)[O-])c2)c(S)cc1Cl | 15.1 µM | 7.94 µM
Cc1cc(S(=O)(=O)Nc2nc(Nc3ccccc3)nn2C)c(S)cc1Cl | 27.5 µM | 15.8 µM
O=S(=O)(Nc1nnc2c3ccccc3cnn12)c1ccc(Cl)cc1S | 28.8 µM | 38.9 µM
Cc1cc(S(=O)(=O)Nc2nnc(Nc3ccccc3)[nH]2)c(S)cc1Cl | 16.2 µM | 12.6 µM
Cc1cc(S(=O)(=O)Nc2n[nH]c(-c3ccc(Cl)cn3)n2)c(S)cc1Cl | 8.91 µM | 10.2 µM
Cc1cc2nc3nc(N)nc(NS(=O)(=O)c4cc(C)c(Cl)cc4S)n3c2cc1C | 5.5 µM | 4.27 µM

Structure (SMILES) | IC50 [1] | IC50 [2]
Cc1cc(S(=O)(=O)Nc2nc3ccccc3nc2-c2ccc(Br)cc2)c(S)cc1Cl | 12.3 µM | 7.94 µM
Cc1cc(S(=O)(=O)Nc2nnc3cc(C(F)(F)F)cc(C)n23)c(S)cc1Cl | 18.6 µM | 11 µM
Cc1cc2c(cc1Cl)SC(C1C(=O)NC(=S)NC1=O)NS2(=O)=O (centres undefined) | 60.3 µM | 50.1 µM
O=C(Nc1ccc(F)cc1)c1cc(S(=O)(=O)Nc2nncn2-c2ccc(F)cc2)c(S)cc1Cl | 79.4 µM | 37.2 µM
CCOC(=O)C(C#N)C1NS(=O)(=O)c2cc(C)c(Cl)cc2S1 (centres undefined) | 331 µM | 112 µM
Cc1cc(S(=O)(=O)Nc2nnc3ccccn23)c(S)cc1Cl | 123 µM | 110 µM
O=C1NC(=S)SC1NS(=O)(=O)c1ccc(-c2ncccn2)cc1 (centres undefined) | 28.8 µM | 14.1 µM
Cc1cc(S(=O)(=O)Nc2nnc3cnc4ccccc4n23)c(S)cc1Cl | 31.6 µM | 8.32 µM
COc1cccc(Nc2n[nH]c(NS(=O)(=O)c3cc(C)c(Cl)cc3S)n2)c1 | 6.31 µM | 20.9 µM
CCCn1cnnc1NS(=O)(=O)c1cc(C(=O)Nc2ccc(C)cc2)c(Cl)cc1SCC(=O)O | 43.7 µM | 43.7 µM
Cc1cc2c(cc1Cl)SC(C1C(=O)NC(=O)NC1=O)NS2(=O)=O (centres undefined) | 60.3 µM | 60.3 µM
Cc1cc(S(=O)(=O)NC(=NN)Nc2ccc(Cl)cc2)c(S)cc1Cl | 3.55 µM | 3.55 µM
Cc1ccc(NC(=O)c2cc(S(=O)(=O)Nc3nncn3Cc3ccccc3)c(S)cc2Cl)cc1 | 8.91 µM | 7.94 µM
CCC(C)n1cnnc1NS(=O)(=O)c1cc(C(=O)Nc2ccc(C)cc2)c(Cl)cc1S (centres undefined) | 200 µM | 112 µM
Cc1cc(S(=O)(=O)Nc2nc(N)n(-c3ccccc3)n2)c(S)cc1Cl | 10.7 µM | 13.2 µM
CC(C)Cn1cnnc1NS(=O)(=O)c1cc(C(=O)Nc2ccc(Cl)cc2)c(Cl)cc1S | 38 µM | 39.8 µM
CCCn1cnnc1NS(=O)(=O)c1cc(C(=O)Nc2ccc(C)cc2)c(Cl)cc1S | 40.7 µM | 39.8 µM
CCCCn1cnnc1NS(=O)(=O)c1cc(C(=O)NCc2ccccc2)c(Cl)cc1S | 89.1 µM | 70.8 µM
Cc1cc(S(=O)(=O)Nc2nnc3c4scc(C)c4ncn23)c(S)cc1Cl | 9.33 µM | 7.41 µM
Cc1cc(S(=O)(=O)Nc2nc(N)nc(N(C)C)n2)c(S)cc1Cl | 77.6 µM | 41.7 µM
CCCCn1cnnc1NS(=O)(=O)c1cc(C(=O)Nc2ccc(C)cc2)c(Cl)cc1S | 60.3 µM | 33.9 µM
Cc1cc(S(=O)(=O)Nc2nc(N)n(-c3ccccn3)n2)c(S)cc1Cl | 14.5 µM | 22.9 µM
Cc1cc(S(=O)(=O)NC(=NN)NNc2cccc(C(F)(F)F)n2)c(S)cc1Cl | 87.1 µM | 100 µM
Cc1cc(S(=O)(=O)Nc2nnc3ccc4ccccc4n23)c(S)cc1Cl | 12.9 µM | 7.41 µM

Structure (SMILES) | IC50 [1] | IC50 [2]
O=C(Nc1ccccc1)c1cc(S(=O)(=O)Nc2nncn2-c2ccc(F)cc2)c(S)cc1Cl | 45.7 µM | 50.1 µM
Cc1ccc(Nc2nc(NS(=O)(=O)c3cc(C)c(Cl)cc3S)n(C)n2)cc1 | 23.4 µM | 19.1 µM
O=S(=O)(Nc1nnc2c3ccccc3ccn12)c1ccc(F)cc1S | 51.3 µM | 47.9 µM
Cc1ccc(-n2cnnc2NS(=O)(=O)c2cc(C(=O)Nc3ccc(Cl)cc3)c(Cl)cc2S)cc1 | 3.98 µM | 3.98 µM
Cc1cc(S(=O)(=O)Nc2nnc3c(Cl)cc(C(F)(F)F)cn23)c(S)cc1Cl | 17.8 µM | 20.9 µM
Cc1cc(S(=O)(=O)NC2=NCCCN2)c(S)cc1Cl | 148 µM | 145 µM
Cc1cc(S(=O)(=O)Nc2nnc3c4ccccc4ccn23)c(S)cc1Cl | 13.2 µM | 10.7 µM
Cc1cc(S(=O)(=O)Nc2nc3ccccc3nc2-c2ccc(Cl)cc2)c(S)cc1Cl | 20 µM | 12 µM
Cc1ccnc(NS(=O)(=O)c2ccc(/N=N/c3cc4ccccc4c(C(=O)O)c3O)cc2)n1 | 19.5 µM | 32.4 µM
CC(=O)C(/N=N/c1ccc(S(=O)(=O)Nc2ccccn2)cc1)C(=O)Nc1ccccc1C (centres undefined) | 66.1 µM | 72.4 µM
CC1N=NC(c2ccc(S(=O)(=O)NC3SC(=S)NC3=O)cc2)S1 (centres undefined) | 24 µM | 19.1 µM
COc1ccc(Nc2n[nH]c(NS(=O)(=O)c3cc(C)c(Cl)cc3S)n2)cc1 | 15.5 µM | 14.1 µM
O=S(=O)(Nc1ccccn1)c1ccc(/N=N/c2cnc(O)c(O)c2)cc1 | 60.3 µM | 58.9 µM
CCN(c1ccccc1)c1nc(N)nc(NS(=O)(=O)c2cc(C)c(Cl)cc2S)n1 | 17.4 µM | 24.5 µM
Cc1cc(S(=O)(=O)Nc2nnc3c4c(C)csc4ncn23)c(S)cc1Cl | 3.63 µM | 3.47 µM
CCCCn1cnnc1NS(=O)(=O)c1cc(C(N)=O)c(Cl)cc1SCC(=O)O | 417 µM | 417 µM
O=S(=O)(Nc1nccs1)c1ccc(/N=N/c2cnc(O)c(O)c2)cc1 | 22.9 µM | 20.9 µM
COC(=O)CSc1cc(Cl)c(C)cc1S(=O)(=O)Nc1nnc(N)[nH]1 | 200 µM | –
CC1=NN(c2ccccc2)C(=O)C1/N=N/c1ccc(S(=O)(=O)Nc2scc(C)c2C)cc1 (centres undefined) | 129 µM | 107 µM
O=C(O)c1cc2ccccc2c(/N=N/c2ccc(S(=O)(=O)Nc3nccs3)cc2)c1O | 21.4 µM | 42.7 µM
Cc1cc(S(=O)(=O)Nc2nc(N)nc3nc4ccccc4n23)c(S)cc1Cl | 9.77 µM | 7.76 µM
NS(=O)(=O)c1ccc(/N=N/C2Sc3nc4ccccc4n3C2=O)cc1 (centres undefined) | 209 µM | 126 µM
